T/C data for 23 compounds are collected here from PubChem BioAssay AID256 (DTP/NCI, 2004).

SMILES strings stand for the structures. Values joined by “and” are separate entries in the source; they are usually repeats but may differ in a detail not shown here. Equal entries are not always repeated. Toxic doses and inconclusive results are not listed.

In this experiment the test system is CD2F1 mice, L1210 leukemia ip, survival T/C. The experiment is described as follows: NCI In Vivo Anticancer Drug Screen. Data for tumor model L1210 Leukemia (intraperitoneal) in CD2F1 (CDF1) mice. To be noted: higher = longer survival. Summed up:
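Mice carrying a transplanted tumor received test compound or vehicle alone. The value is the measurement in the treated group divided by that in the vehicle-treated control group.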

The mark [1] stands for this setting: endpoint: mean survival time, dose: 100.0 mg/kg/injection, schedule: Q04DX003 (ip), vehicle: saline with Tween-80.
Where [2] appears, read: endpoint: mean survival time, dose: 200.0 mg/kg/injection, schedule: Q04DX003 (ip), vehicle: saline with Tween-80.
The mark [3] stands for this setting: endpoint: mean survival time, dose: 25.0 mg/kg/injection, schedule: Q01DX009 (ip), vehicle: saline with Tween-80.
[4] abbreviates: endpoint: mean survival time, dose: 50.0 mg/kg/injection, schedule: Q01DX009 (ip), vehicle: saline with Tween-80.
The mark [5] stands for this setting: endpoint: mean survival time, dose: 100.0 mg/kg/injection, schedule: Q01DX001 (ip), vehicle: saline with Tween-80.
Where [6] appears, read: endpoint: mean survival time, dose: 200.0 mg/kg/injection, schedule: Q01DX001 (ip), vehicle: saline with Tween-80.
Setting [7] is: endpoint: mean survival time, dose: 400.0 mg/kg/injection, schedule: Q01DX001 (ip), vehicle: saline with Tween-80.
The mark [8] stands for this setting: endpoint: mean survival time, dose: 50.0 mg/kg/injection, schedule: Q01DX009 (ip), vehicle: saline.
Where [9] appears, read: endpoint: mean survival time, dose: 100.0 mg/kg/injection, schedule: Q01DX009 (ip), vehicle: saline with Tween-80.
Where [10] appears, read: endpoint: mean survival time, dose: 100.0 mg/kg/injection, schedule: Q01DX009 (ip), vehicle: saline.
[11] abbreviates: endpoint: mean survival time, dose: 200.0 mg/kg/injection, schedule: Q01DX009 (ip), vehicle: saline with Tween-80.
Where [12] appears, read: endpoint: mean survival time, dose: 50.0 mg/kg/injection, schedule: Q01DX009 (ip), vehicle: Klucel (hydroxypropylcellulose) (HPC).
Setting [13] is: endpoint: mean survival time, dose: 100.0 mg/kg/injection, schedule: Q01DX009 (ip), vehicle: Klucel (hydroxypropylcellulose) (HPC).
[14] abbreviates: endpoint: mean survival time, dose: 200.0 mg/kg/injection, schedule: Q01DX009 (ip), vehicle: Klucel (hydroxypropylcellulose) (HPC).
Where [15] appears, read: endpoint: mean survival time, dose: 12.5 mg/kg/injection, schedule: Q01DX005 (ip), vehicle: water.
Setting [16] is: endpoint: mean survival time, dose: 25.0 mg/kg/injection, schedule: Q01DX005 (ip), vehicle: water.
The mark [17] stands for this setting: endpoint: mean survival time, dose: 50.0 mg/kg/injection, schedule: Q01DX005 (ip), vehicle: water.
[18] abbreviates: endpoint: mean survival time, dose: 100.0 mg/kg/injection, schedule: Q01DX005 (ip), vehicle: water.
The mark [19] stands for this setting: endpoint: mean survival time, dose: 200.0 mg/kg/injection, schedule: Q01DX005 (ip), vehicle: water.

On to `Nc1ccn(C2OC(CO)C3[O][Sn]([c]4ccccc4)([c]4ccccc4)[O]C32)c(=O)n1` (centres undefined), for which the T/C is, setting by setting: (endpoint: mean survival time, dose: 1.56 mg/kg/injection, schedule: Q01DX005 (ip), vehicle: other) 100 % of control; (endpoint: mean survival time, dose: 3.13 mg/kg/injection, schedule: Q01DX005 (ip), vehicle: other) 94 % of control; (endpoint: mean survival time, dose: 6.25 mg/kg/injection, schedule: Q01DX005 (ip), vehicle: other) 100 % of control; (endpoint: mean survival time, dose: 12.5 mg/kg/injection, schedule: Q01DX005 (ip), vehicle: other) 94 % of control and 104 % of control.
In the case of `O=C1C(NCCO)=C(N2CC2)C(=O)C(NCCO)=C1N1CC1`, the T/C is 122 % of control (endpoint: median survival time, dose: 0.06 mg/kg/injection, schedule: Q01DX009 (ip), vehicle: saline); 153 % of control (endpoint: median survival time, dose: 0.25 mg/kg/injection, schedule: Q01DX009 (ip), vehicle: saline); 171 % of control (endpoint: median survival time, dose: 0.5 mg/kg/injection, schedule: Q01DX009 (ip), vehicle: saline); 220 % of control (endpoint: median survival time, dose: 1.0 mg/kg/injection, schedule: Q01DX009 (ip), vehicle: saline); 86 % of control (endpoint: median survival time, dose: 2.0 mg/kg/injection, schedule: Q01DX009 (ip), vehicle: saline).
On to `O=C(O)CCS(=O)(=O)CCC(=O)O`, for which the T/C is 92 % of control under setting [1]; 93 % of control under setting [2]; 90 % of control (endpoint: mean survival time, dose: 400.0 mg/kg/injection, schedule: Q04DX003 (ip), vehicle: saline with Tween-80).
Turning to `O=C(O)C1OC(C(=O)O)C(C(=O)O)C1C(=O)O` (centres undefined), the T/C (endpoint: mean survival time, dose: 75.0 mg/kg/injection, schedule: Q01DX001 (ip), vehicle: other) is 100 % of control; the T/C (endpoint: mean survival time, dose: 150.0 mg/kg/injection, schedule: Q01DX001 (ip), vehicle: other) was 100 % of control; the T/C (endpoint: mean survival time, dose: 300.0 mg/kg/injection, schedule: Q01DX001 (ip), vehicle: other) is 95 % of control.
For `O=C(Nc1cccc(C(F)(F)F)c1)c1ccc(Cl)cc1`, the T/C runs as follows: (endpoint: mean survival time, dose: 100.0 mg/kg/injection, schedule: Q04DX002 (ip), vehicle: saline with Tween-80) 97 % of control; (endpoint: mean survival time, dose: 200.0 mg/kg/injection, schedule: Q04DX002 (ip), vehicle: saline with Tween-80) 105 % of control; (endpoint: mean survival time, dose: 400.0 mg/kg/injection, schedule: Q04DX002 (ip), vehicle: saline with Tween-80) 105 % of control.
As to `CCOC(=O)C(C(=O)OCC)n1c(=O)c2c(ncn2C)n(C)c1=O`, the T/C is 102 % of control (endpoint: mean survival time, dose: 200.0 mg/kg/injection, schedule: Q01DX005 (ip), vehicle: distilled water + Tween-80) and 101 % of control (endpoint: mean survival time, dose: 400.0 mg/kg/injection, schedule: Q01DX005 (ip), vehicle: distilled water + Tween-80).
Take `O=C1OC(=O)c2ccc([N+](=O)[O-])c3cccc1c23`: the T/C reads like this: (endpoint: mean survival time, dose: 100.0 mg/kg/injection, schedule: Q04DX003 (ip), vehicle: Klucel (hydroxypropylcellulose) (HPC)) 98 % of control; (endpoint: mean survival time, dose: 200.0 mg/kg/injection, schedule: Q04DX003 (ip), vehicle: Klucel (hydroxypropylcellulose) (HPC)) 106 % of control; (endpoint: mean survival time, dose: 400.0 mg/kg/injection, schedule: Q04DX003 (ip), vehicle: Klucel (hydroxypropylcellulose) (HPC)) 96 % of control.
Turning to `Cc1cc(N(CCCl)CCCl)c(C)cc1NC(=O)c1ccccc1`, the T/C (endpoint: mean survival time, dose: 4.0 mg/kg/injection, schedule: Q01DX009 (ip), vehicle: saline) is 106 % of control; the T/C (endpoint: mean survival time, dose: 6.0 mg/kg/injection, schedule: Q01DX009 (ip), vehicle: saline) is 115 % of control; the T/C (endpoint: mean survival time, dose: 10.0 mg/kg/injection, schedule: Q01DX009 (ip), vehicle: saline) was 113 % of control; the T/C (endpoint: mean survival time, dose: 18.0 mg/kg/injection, schedule: Q01DX009 (ip), vehicle: saline) is 121 % of control; the T/C (endpoint: mean survival time, dose: 30.0 mg/kg/injection, schedule: Q01DX009 (ip), vehicle: saline) is 124 % of control.
Take `S=C(S)NN1CCCC1`: the T/C under setting [3] was 101 % of control, the T/C under setting [4] was 100 % of control and the T/C under setting [1] was 92 % of control.
For the compound `CCOC(=O)COc1c(C(C)(C)C)cc([N+](=O)[O-])c(C)c1[N+](=O)[O-]`, the T/C by setting is: under setting [5], 105 % of control; under setting [6], 111 % of control; under setting [7], 96 % of control.
Take `O=C(O)Cn1nnc2ccccc21`: the T/C is 100 % of control under setting [3]; 102 % of control (endpoint: mean survival time, dose: 25.0 mg/kg/injection, schedule: Q01DX009 (ip), vehicle: saline); 97 % of control under setting [4]; 102 % of control under setting [8]; 97 % of control under setting [9]; 98 % of control under setting [10]. In addition, the T/C was 100 % of control under setting [11] and 100 % of control (endpoint: mean survival time, dose: 200.0 mg/kg/injection, schedule: Q01DX009 (ip), vehicle: saline).
Take `CCOC(=O)NC(C)(C)CN(C(=O)OCC)C(C)(C)CO`: the T/C is, setting by setting: under setting [8], 102 % of control; under setting [10], 98 % of control.
With `COc1cc(N(C)C)ccc1/C=C\c1ccnc2ccccc12`, the T/C runs as follows: (endpoint: mean survival time, dose: 50.0 mg/kg/injection, schedule: Q01DX001 (ip), vehicle: saline with Tween-80) 96 % of control; under setting [5], 95 % of control; under setting [6], 95 % of control; under setting [7], 93 % of control.
Regarding `CC(C)(C)CC(C)(C)c1ccc(OCCOc2ccc(NS(=O)(=O)c3ccc(N)c([N+](=O)[O-])c3)cc2)cc1`, the T/C under setting [12] was 101 % of control, the T/C under setting [13] was 101 % of control and the T/C under setting [14] was 98 % of control.
As to `Nc1nccc2c1nnn2C1OC(CO)C(O)C1O` (centres undefined), the T/C was 102 % of control under setting [15]; 104 % of control under setting [16]; 96 % of control under setting [17]; 102 % of control under setting [18]; 106 % of control under setting [19].
Take `Cc1nc(C)c(C(=O)O)cc1C(=O)O`: the T/C was 102 % of control (endpoint: mean survival time, dose: 100.0 mg/kg/injection, schedule: Q04DX003 (ip), vehicle: saline); 96 % of control (endpoint: mean survival time, dose: 200.0 mg/kg/injection, schedule: Q04DX003 (ip), vehicle: saline); 98 % of control (endpoint: mean survival time, dose: 400.0 mg/kg/injection, schedule: Q04DX003 (ip), vehicle: saline).
On to `CC(S)c1ccccc1` (centres undefined), for which the T/C is 90 % of control under setting [4]; 102 % of control under setting [9]; 104 % of control under setting [1]; 104 % of control under setting [11]; 98 % of control under setting [2].
For `CCOC(=O)C(C#N)N=Nc1ccccc1` (centres undefined), the T/C was 95 % of control under setting [9]; 95 % of control under setting [11]; 95 % of control (endpoint: mean survival time, dose: 400.0 mg/kg/injection, schedule: Q01DX009 (ip), vehicle: saline with Tween-80).
Take `O=c1[nH]cnc2nc(SCc3ccc([N+](=O)[O-])cc3)[nH]c12`: the T/C under setting [12] was 90 % of control, the T/C under setting [13] is 94 % of control and the T/C under setting [14] is 105 % of control.
For the compound `OCC1OC(n2ncc3c2ncn2ncnc32)C(O)C1O` (centres undefined), the T/C by setting is: under setting [15], 90 % of control; under setting [16], 94 % of control; under setting [17], 101 % of control; under setting [18], 100 % of control; under setting [19], 113 % of control.
Take `O=C(CCCCCCCCC(=O)OO)OO` (tested in a mixture with another compound): under setting [9], the T/C was 96 % of control.
As for `COc1cc2c(cc1O)CCCC=C2C1CCCCc2cc(O)c(OC)cc21` (centres undefined), the T/C is 96 % of control under setting [4], 103 % of control under setting [9] and 96 % of control under setting [11].
As for `O=C(NCCCl)NC1C(O)OC(CO)C(O)C1O` (centres undefined), the T/C is 107 % of control (endpoint: mean survival time, dose: 12.5 mg/kg/injection, schedule: Q01DX009 (ip), vehicle: water); 107 % of control (endpoint: mean survival time, dose: 25.0 mg/kg/injection, schedule: Q01DX009 (ip), vehicle: water); 104 % of control (endpoint: mean survival time, dose: 50.0 mg/kg/injection, schedule: Q01DX009 (ip), vehicle: water); 104 % of control (endpoint: mean survival time, dose: 100.0 mg/kg/injection, schedule: Q01DX009 (ip), vehicle: water); 105 % of control (endpoint: mean survival time, dose: 200.0 mg/kg/injection, schedule: Q01DX009 (ip), vehicle: water).
